According to publication PMC12169669, “Regio- and Stereoselective Synthesis of Nitro-fatty Acids as NRF2 Pathway Activators Working under Ambient or Hypoxic Conditions” (Journal of Medicinal Chemistry, 2025):

Tests used:
Type in all cases: cell-based, mouse
HO-1 = HO-1 protein level in BMCs (Western blot); conditions: 2 μM, 4 h; for HO-1 increase at 1% oxygen relative to atmospheric conditions: 1% vs 21% oxygen
From the text: (§1) Primary bone marrow cells (BMCs) were isolated from 8–12-week-old male C57BL/6 mice (25–30 g, AnLab, Czech Republic). Mice were housed under standard conditions. BMCs were isolated as follows: The day before isolation, phosphate-buffered saline (PBS), ACK Lysis Buffer (A10492-01, Thermo Fisher Scientific), and Iscove’s Modified Dulbecco’s Medium (IMDM) (12440-053, Thermo Fisher Scientific) were placed in a hypoxic chamber (InvivO2 400, Baker Ruskinn, UK) with adjustable oxygen control to equilibrate for the target oxygen concentrations. On the day of the experiment, animals were euthanized using ketamine/xylazine, and bilateral femurs were extracted. BMCs were flushed with hypoxic (1% O2 unless stated otherwise) PBS supplemented with 2% fetal bovine serum (FBS; low endotoxin, FB-1101/500, Biosera, France). After hemolysis at room temperature using hypoxic ACK Lysis Buffer, nucleated BMCs were washed with hypoxic PBS + 2% FBS and counted using a TC20 automated cell counter (Bio-Rad). Cells were kept under hypoxic conditions prior to treatment. The medium for BMC culture, consisting of IMDM with 2% FBS and 1% penicillin/streptomycin (LM-A4118/100, Biosera, France), was supplemented with 10 ng/mL mouse IL-3, 10 ng/mL mouse IL-6, and 50 ng/mL mouse stem cell factor - SCF (213-13, 216-16, and 250-03, respectively; all from PeproTech). Cells were cultured at 37 °C in a humidified atmosphere containing 5% CO2 and the specified oxygen concentrations (21%, 4%, or 1%).
(§2) Briefly, 1.5 × 10^6 BMCs were placed in 0.2 mL of complete medium in 1.5 mL microtubes and incubated with 2 μM NO2FAs or the control (medium only) for 1 (NRF2), 4 (heme oxygenase-1, HO-1), or 7 (glutamate-cysteine ligase modifier subunit, GCLM) hours at the specified oxygen levels (21%, 4%, or 1%). Cells were then spun down and washed with PBS (from this step onward, cells were processed under atmospheric conditions). Next, cells were lysed in 60 μL RIPA buffer (89901, Thermo Fisher Scientific) containing protease and phosphatase inhibitors cocktail (78442, Thermo Fisher Scientific). Cell lysates were sonicated and centrifuged at 15,000g for 3 min at 4 °C, and 15 μL of lane marker (3900, Thermo Fisher Scientific) was added to the supernatants. Samples were boiled for 3 min at 95 °C. Equal volumes of lysates (15–45 μL/well) were loaded onto 7–15% SDS-polyacrylamide gels. Proteins were then transferred onto PVDF membranes (IPVH85R, EMD Millipore Corp.) and blocked with 5% nonfat dry milk in TBST. Membranes were incubated overnight at 4 °C with the following primary antibodies: anti-β-actin (1:1000; #3700, Cell Signaling Technology), antivinculin (1:10,000; #SAV9264, Sigma-Aldrich), anti-NRF2 (1:500; A308758, Lot 38410, Antibodies.com, UK), anti-HO-1 (1:1000; #43966, Cell Signaling Technology), antihistone H3 (1:2000; #4499, Cell Signaling Technology), or anti-GCLM (1:100; sc-55586, Santa Cruz Biotechnology). This was followed by incubation with corresponding HRP-linked secondary antibodies (antimouse IgG, #7076, 1:1000–5000; or antirabbit IgG, #7074, 1:1000–2000; both from Cell Signaling Technology) for 1 h at room temperature. Protein bands were visualized using an enhanced chemiluminescent substrate (SuperSignal 34577/34095, Thermo Fisher Scientific). The optical densities of detected proteins were measured using ImageJ v1.52 (NIH).
(§3) 4 Expression of NRF2-target proteins HO-1 and GCLM. NO 2 FA derivatives upregulate the expression of NRF2-target proteins in mouse BMCs. BMCs were cultured under 21% or 1% oxygen conditions and treated with 2 μM of the tested NO 2 FAs for 4 h (A, B) or 7 h (C, D). HO-1 (A, B) and GCLM (C, D) expression in whole-cell lysates was subsequently analyzed. Results are presented as the fold change relative to control cells across different oxygen culture conditions. Data are expressed as mean ± SD from 3–5 independent experiments (n = 3–5). […]

Gclm [1] = test: GCLM protein level in BMCs (Western blot); conditions: 2 μM, 7 h
From the text: as §1, §2, §3

Nfe2l2 = test: Relative gene expression of Nfe2l2 in BMCs (qRT-PCR); conditions: 2 μM, 4 h
From the text: Primary bone marrow cells (BMCs) were isolated from 8–12-week-old male C57BL/6 mice (25–30 g, AnLab, Czech Republic). Mice were housed under standard conditions. BMCs were isolated as follows: The day before isolation, phosphate-buffered saline (PBS), ACK Lysis Buffer (A10492-01, Thermo Fisher Scientific), and Iscove’s Modified Dulbecco’s Medium (IMDM) (12440-053, Thermo Fisher Scientific) were placed in a hypoxic chamber (InvivO2 400, Baker Ruskinn, UK) with adjustable oxygen control to equilibrate for the target oxygen concentrations. On the day of the experiment, animals were euthanized using ketamine/xylazine, and bilateral femurs were extracted. […] After hemolysis at room temperature using hypoxic ACK Lysis Buffer, nucleated BMCs were washed with hypoxic PBS + 2% FBS and counted using a TC20 automated cell counter (Bio-Rad). […]
3 Expression of NRF2 and its target genes in response to NO2FA derivatives. BMCs were cultured under 4% or 1% oxygen conditions and treated for 4 h with the tested NO 2 FAs (2 μM) or medium followed by quantification of (A) Nfe2l2, (B) Hmox1, and (C) Gclm with PCR. […] Data are expressed as mean ± SD from 3 to 7 independent experiments (n = 3–7), analyzed with one-way ANOVA with Dunnett’s multiple comparisons test compared to the controls (*p < 0.05; **p < 0.01; ***p < 0.001).

Gclm [2] = test: Relative gene expression of Gclm in BMCs (qRT-PCR); conditions: 2 μM, 4 h; for Gclm relative expression: 4% and 1% oxygen
From the text: as §1
For the relative gene expression of nuclear factor erythroid 2-related factor 2 (NRF2, encoded by Nfe2l2), heme oxygenase-1 (Hmox1), and Glutamate-Cysteine Ligase Modifier Subunit (Gclm) (Mm00477784_m1, Mm00516005_m1, Mm00514996_m1, all from Thermo Fisher Scientific), mouse BMC (3 × 10^6 cells) were cultivated on a 6-well plate in 1.5 mL of complete media (see Isolation and culture of primary cells), and then incubated with 2 μM NO2FAs or control (medium only) for 4 h at the specified oxygen levels (21%, 4%, or 1%). Then, the adherent and nonadherent cells were washed with PBS and lysed using a NucleoSpin RNA Plus kit (740984, Machery-Nagel; Germany). The concentration and purity of isolated RNA was assessed using an Infinite M200 Pro spectrophotometer (Tecan, Austria). Total RNA (0.2 μg) was reversely transcribed into first strand cDNA using a RevertAid First Strand cDNA Synthesis kit according to the manufacturer’s protocol (K1622, Thermo Fisher Scientific). qRT-PCR reactions were performed in a LightCycler480 instrument (Roche; Switzerland) using TaqMan FastAdvanced Master Mix for qPCR (4444557, Thermo Fisher Scientific) and the following program was used: uracil-N-glycosylase activation step at 50 °C for 2 min, an initial denaturation step at 95 °C for 2 min, followed by 45 cycles (95 °C for 3 s, 60 °C for 30 s), and a final cooling step at 40 °C for 1 min. Data were normalized to ribosomal protein L32 (Rpl32, Mm02528467_g1, Thermo Fisher Scientific) and presented as 2^–Δcq.
3 Expression of NRF2 and its target genes in response to NO2FA derivatives. BMCs were cultured under 4% or 1% oxygen conditions and treated for 4 h with the tested NO 2 FAs (2 μM) or medium followed by quantification of (A) Nfe2l2, (B) Hmox1, and (C) Gclm with PCR. Results are presented as relative expression across different oxygen culture conditions. Dimethyl fumarate (DMF) was added as a control. Data are expressed as mean ± SD from 3 to 7 independent experiments (n = 3–7), analyzed with one-way ANOVA with Dunnett’s multiple comparisons test compared to the controls (*p < 0.05; **p < 0.01; ***p < 0.001).
Relative expression of (A) Hmox1 and (B) Gclm in different oxygen […]
Figure S 2. Relative expression of (A) Hmox1 and (B) Gclm in different oxygen conditions. BMCs were cultured under varying oxygen conditions (21, 4, and 1%) and treated for 4 hours with the tested 10 -NO₂OA (2 µM) or medium followed by quantification […]
with PCR. […]

Row | SMILES | HO-1 increase at 1% oxygen relative to atmospheric conditions (HO-1) | HO-1 protein level, fold change relative to control (HO-1; 21% oxygen) | GCLM protein level, fold change relative to control (Gclm [1]; 1% oxygen) | GCLM protein level, fold change relative to control (Gclm [1]; 21% oxygen) | Nfe2l2 relative expression (Nfe2l2; 4% oxygen) | Gclm relative expression (Gclm [2]) | Gclm expression at 1% oxygen compared to 21% (Gclm [2]; 1% vs 21% oxygen) | HO-1 protein level, fold change relative to control (HO-1; 1% oxygen) | Nfe2l2 relative expression (Nfe2l2; 4% and 1% oxygen)
1 | CCCCCCCC/C=C(\CCCCCCCC(=O)O)[N+](=O)[O-] [9-NO2OA, (9E)-9-Nitro-oleic Acid] | roughly 1.8 fold | significantly increased | nearly the same increase | nearly the same increase | significantly increased | significant upregulation | – | – | –
2 | CCCCCCCC/C(=C\CCCCCCCC(=O)O)[N+](=O)[O-] [10-NO2OA, (9E)-10-Nitro-oleic Acid] | ~2.2 fold | significantly increased | nearly the same increase | nearly the same increase | – | significant upregulation | not observed | – | –
3 | CCCCCCCCC(CCCCCCCCC(=O)O)[N+](=O)[O-] (stereo not shown) [10-NO2SA, 10-Nitro Stearic acid] | – | no significant effects | no significant effects | no significant effects | – | no effects | – | no significant effects | no effects
4 | CCCCC/C=C\C/C(=C\CCCCCCCC(=O)O)[N+](=O)[O-] [10-NO2LA, (9E,12Z)-10-Nitro Linoleic Acid] | – | – | – | only significant at 21% oxygen | – | upregulation that was dependent on oxygen levels or specific target genes | – | only increased HO-1 under hypoxic conditions | –
5 | CCCCCC/C=C/C=C(\CCCCCCCC(=O)O)[N+](=O)[O-] [9-NO2cLA, (9E,11E)-9-Nitro Conjugated Linoleic Acid] | – | – | – | – | – | upregulation that was dependent on oxygen levels | – | – | –
